In patent US5441962A, “Method for treating hyperlipemia” (priority 1992, dated 1995):
Structures can show the parent of a compound that is named as a salt.

How the values were obtained:
[1] = system: experimental sclerosis rabbits; test: Change of Aortic Pulse Wave Velocity (ΔPWV) in experimental sclerosis rabbits; type: in vivo, Male Japanese white rabbits
Description: (§1) In this example, the effects of the present compound on the wall of a blood vessel, a serum lipid and a blood glucose level were studied on the experimental sclerosis rabbits from the determination of the arterial sclerosis action, the assay of the components constituting the wall of the blood vessel and the transitional analysis of the damage of the blood wall with time.
(§2) Male Japanese white rabbits (25 months age) were randomly divided into three groups. A normal diet was given to one group (called hereafter "healthy group"). The remaining two groups were fed with 100 g/day of a high α-starch, high salinity and low protein, sclerosis diet containing 0.3% cholesterol (manufactured by Funabashi Farm), simultaneously injected intramuscularly with norepinephrine (3 mg) and bred for 150 days. One group of them was called hereafter "sclerosis group". […] Every 50 days, Aortic Pulse Wave Velocity (PWV) was measured to determine a average hardness of aorta of the rabbits. After five months and just before slaughter of the rabbits, blood was drawn to determine cholesterol in blood (T-Cho), triglyceride (TG), β-lipoprotein (β-Lp), HDL choresterol and a blood glucose level. After slaughter, a fifth intercostal pars in the thoracic aorta was extracted and then subjected to formalin fixation and embedding in paraffin. Subsequently, each component of smooth muscle cell (SMC), elastin (EL), collagen (CL), glycosaminoglycan (GAGs), PAS positive substance (PAS), calcium (Ca) and cholesterol (Cho) was histochemically observed and assayed.
PWV is increasing with the advance of growth, maturation and ageing. Thus an increase in PWV value is an indication of arterial sclerosis (see Arterial Sclerosis, vol. 8, No. 1 April 1980, pp 91-95).

Wall of Aorta = test: Proportion of components constituting the wall of aorta (histochemical assay, fifth intercostal pars of thoracic aorta); type: in vivo, Male Japanese white rabbits
Description: as §1, §2

[2] = Serum lipid and blood glucose level in experimental sclerosis rabbits; type: in vivo, Male Japanese white rabbits; details: rabbit, oral 3 mg once per day, after five months
Description: as §1, §2

in vivo = details: mouse, in vivo, po, average
mice = test: in vivo; details: oral
[3] = rabbit, oral 3 mg once per day, after 150 days

Cl.Cn1cc(OCC(O)CNC(C)(C)C)c2ccccc2c1=O (racemic) [(±)-4-(3-tert.-butylamino-2-hydroxypropoxy)-2-methyl-1 (2H)-isoquinolinone hydrochloride]
PWV as compared with the sclerosis group ([1]; 150 days, vs sclerosis group): significantly improved | Δ PWV, 0-50 days ([1]; rabbit, sclerosis diet + norepinephrine i.m., oral capsule 3 mg once per day, 0-50 days): -0.110 m/sec | Δ PWV, 51-100 days ([1]; rabbit, sclerosis diet + norepinephrine i.m., oral capsule 3 mg once per day, 51-100 days): -0.290 m/sec | Δ PWV, 101-150 days ([1]; rabbit, sclerosis diet + norepinephrine i.m., oral capsule 3 mg once per day, 101-150 days): -0.890 m/sec | Improvement in arterial sclerosis (Wall of Aorta; Table 2, drug administered group): remarkable improvement in arterial sclerosis | Proportion of PAS positive substance (PAS) in the wall of aorta (Wall of Aorta; [3]): 27.83 % E | Proportion of calcium (Ca) in the wall of aorta (Wall of Aorta; [3]): 1.92 % E | Proportion of cholesterol (Cho) in the wall of aorta (Wall of Aorta; [3]): 0.68 % E | Proportion of collagen (CL) in the wall of aorta (Wall of Aorta; [3]): 30.33 % E | Proportion of elastin (EL) in the wall of aorta (Wall of Aorta; [3]): 40.56 % E | Proportion of glycosaminoglycan (GAGs) in the wall of aorta (Wall of Aorta; [3]): 16.03 % E | Proportion of smooth muscle cell (SMC) in the wall of aorta (Wall of Aorta; [3]): 46.72 % E | Blood glucose level [2]: 162.50 mg/dL | Cholesterol in blood (T-Cho) [2]: 25.25 mg/dL | HDL cholesterol (HDL-C) [2]: 15.44 mg/dL | Triglyceride (TG) [2]: 65.40 mg/dL | β-lipoprotein (β-Lp) [2]: 2.75 mg/dL | LD50 (in vivo; female mice): 1290 mg/kg | LD50 (in vivo; male mice): 1390 mg/kg

CC(C)(C)NCC(O)COc1c[nH]c(=O)c2ccccc12 (centres unmarked) [4-(3-tert.-butylamino-2-hydroxypropoxy)-1-isoquinolinonehydrochloride]
LD50, range in parentheses (mice; female mice): 1063 to 1566 mg/kg | LD50, range in parentheses (mice; male mice): 1223 to 1587 mg/kg | LD50 (in vivo; female mice): 1290 mg/kg | LD50 (in vivo; male mice): 1390 mg/kg
